# Measurements from publication PMC8901636, “Preclinical studies of Flonoltinib Maleate, a novel JAK2/FLT3 inhibitor, in treatment of JAK2^V617F-induced myeloproliferative neoplasms” (Blood Cancer Journal, 2022).
# Read-outs that look alike come from different tables or passages of the source.
# Key:
# Molm-13 = test: MTT assay for cell proliferation; type: cell-based; conditions: Homo sapiens, MOLM-13, 72 h, read-out: IC50(μM) ± SD, tumor cell proliferation
# Description: (§2) For in vitro inhibition assays, cells were seeded in 96-well culture plates with a density of 15,000–20,000 cells/well after the cells reached 70–90% confluence. […] MTT (3-(4, 5-dimethylthiazol-2-yl)-2, 5-diphenyltetrazolium bromide) (Cat. No. 1334GR001; BioFroxx) assay was conducted in order to examine viability. The IC50 values were fitted using GraphPad Prism 7.0.
# [1] = test system: FLT3 mutant tumor cell lines; test: MTT assay for cell proliferation, summary of panel; type: cell-based; conditions: summary of Table S7
# Description: (§1) For in vitro inhibition assays, cells were seeded in 96-well culture plates with a density of 15,000–20,000 cells/well after the cells reached 70–90% confluence. After overnight incubation, the cells received a supplement of serial concentrations of FM and underwent 72 h incubation at 37 °C under 5% CO2. MTT (3-(4, 5-dimethylthiazol-2-yl)-2, 5-diphenyltetrazolium bromide) (Cat. No. 1334GR001; BioFroxx) assay was conducted in order to examine viability. The IC50 values were fitted using GraphPad Prism 7.0.
# [2] = test system: JAK2^V617F mutant cell lines; test: MTT assay for cell proliferation, summary of panel; type: cell-based; conditions: summary of Table S7; read-out: anti-proliferative IC50 on JAK2^V617F mutant cell lines
# Description: as §1
# [3] = test system: Ba/F3-EPOR-JAK2^V617F cells; test: PD study after repeated administration in Ba/F3-EPOR-JAK2^V617F tumor-bearing mice; type: in vivo
# Description: For Ba/F3-EPOR-JAK2^V617F driven malignant model after repeated administration, tumor-bearing mice were randomly divided into 8 groups on the 10th day. Mice were sacrificed at 0, 0.25, 0.5, 1, 4, 8, 12, and 24 hours after the last oral administration, and tissue samples were harvested to determine the distribution of FM and PK parameters by UFLC-MS/MS. For PD studies, we weighed the spleen, and analyzed the ratio of GFP^+ in the spleen and PB by flow cytometry, and test the downstream pathway protein p-STAT5 (Y694, Cat. No. Ab32364) via Western Blot.
# With the decrease of drug concentration, the level of p-STAT5 increased to a certain extent, but 12 hours after administration, the level of p-STAT5 still decreased (Fig. 5C). […] 71 ± 7. 91%, respectively. In addition, the weight of spleen was 267.2 ± 56.8 mg in the untreated group and 167.5 ± 52.9 mg in the repeated administration groups (12 hours after the last administration) (Fig. 5D and Fig. S4E).
# Ba/F3-FLT3-ITD^D835V = test: MTT assay for cell proliferation; type: cell-based, Murine; conditions: Mus musculus, 72 h, read-out: IC50(μM) ± SD, tumor cell proliferation
# Description: as §2
# [4] = PK and tissue distribution after single oral administration in Ba/F3-EPOR-JAK2^V617F tumor-bearing mice; type: in vivo; conditions: for Kp: spleen and plasma, po
# CD34^+ cells = test: CD34+ cells in peripheral blood of normal mice; type: in vivo; conditions: normal BALB/c mice; 30 mg/kg p.o. twice a day; Day 0-21
# Description: To further understand the effect of FM on normal mice and normal human CD34^+ cells, we conducted a further analysis on CD34^+ cells. For normal mice, we measured the proportion of CD34^+ in the peripheral blood of BALB/c mice on Day 0, and then mice were treated with FM 30 mg/kg p.o. twice a day. […] To investigate the effect of FM on normal human CD34^+ cells, we collected mononuclear cells of PB acquired from healthy donors. […] Therefore, in the future phase I clinical trials, we should examine the myelosuppressive effects of FM in patients with MPN.
# (A) Normal BALB/c mice were treated with vehicle and FM 30mg/kg p.o. twice a day. FACS analysis of the percentage of CD34^+ cells on Day 0, 7, 14 and 21 (n = 7). (B) Mononuclear cells were isolated from the PB of healthy donors and CD34^+ cells were analyzed after incubated with FM after 48h.
# JAK1/JAK2 = test: Cytokine-stimulated cell-based assay, G-CSF-induced p-STAT3 in HEL cells; conditions: Homo sapiens
# Description: To further determine the selectivity of FM to inhibit different JAK isotypes in cell lines, we performed a series of cytokine-stimulated cell-based assays and assessed the signal transduction of JAK subtypes.
# (A) Inhibition of cytokine induced JAK auto-phosphorylation by FM in HEL cell lines. Raw data about HEL (B) and Ba/F3-JAK2^V617F (C) cells were supplemented with different concentrations of FM for cell cycle analysis. […] (F) p-FLT3, p-STAT5, and p-ERK in Molm-13 cell line were also assessed after 3 hours exposure with increasing concentrations of FM.
# Bioavailability = conditions: dog, in vivo; dogs; data not shown
# Ba/F3-FLT3-ITD^F691 = test: MTT assay for cell proliferation; type: cell-based, Murine; conditions: Mus musculus, 72 h, read-out: IC50(μM) ± SD, tumor cell proliferation
# Description: as §2
# Ba/F3-JAK2^V617F = test: MTT assay for cell proliferation; type: cell-based, Murine; conditions: Mus musculus, 72 h, read-out: IC50(μM) ± SD, tumor cell proliferation
# Description: as §2
# [5] = before the last administration, 30 mg/kg repeated
# [6] = BALB/c nude, mouse, brain, oral, 30 mg/kg, single, read-out: FM concentration, Brain
# [7] = BALB/c nude, mouse, heart, oral, 30 mg/kg, single, read-out: FM concentration, Heart
# [8] = BALB/c nude, mouse, intestine, oral, 30 mg/kg, single, read-out: FM concentration, Intestine
# [9] = BALB/c nude, mouse, kidney, oral, 30 mg/kg, single, read-out: FM concentration, Kidney
# [10] = BALB/c nude, mouse, liver, oral, 30 mg/kg, single, read-out: FM concentration, Liver
# [11] = BALB/c nude, mouse, lung, oral, 30 mg/kg, single, read-out: FM concentration, Lung
# [12] = BALB/c nude, mouse, muscle, oral, 30 mg/kg, single, read-out: FM concentration, Muscle
# [13] = BALB/c nude, mouse, plasma, oral, 30 mg/kg, single, read-out: FM concentration, Plasma
# [14] = BALB/c nude, mouse, spleen, oral, 30 mg/kg, single, read-out: FM concentration, Spleen
# [15] = BALB/c nude, mouse, stomach, oral, 30 mg/kg, single, read-out: FM concentration, Stomach
# [16] = BALB/c nude, mouse, Plasma, single oral 30 mg/kg
# [17] = BALB/c nude, mouse, spleen, single oral 30 mg/kg
compound,measurement,setting,value
"Cc1cnc(Nc2ccc(N3CCC(N(C)CCO)CC3)c(F)c2)nc1-c1cnn(C(C)C)c1 [FM, 2-((1-(2-fluoro-4-((4-(1-isopropyl-1H-pyrazol-4-yl)-5-methylpyrimidin-2-yl)amino)phenyl)piperidin-4-yl)(methyl)amino)ethan-1-ol]",IC50,Molm-13,0.06 ± 0.03 µM
same,IC50,[1],< 100 nM
same,IC50,[2],< 500 nM
same,GFP^+ tumor cells in PB,"[3]; 12 hours after the 17th administration, 30 mg/kg",11.77 ± 5.5%
same,GFP^+ tumor cells in PB,[3]; [5],19.75 ± 12.93%
same,GFP^+ tumor cells in spleen,[3]; [5],17.12 ± 8.15%
same,weight of spleen,"[3]; repeated administration, 12 hours after the last administration, untreated 267.2 ± 56.8 mg",167.5 ± 52.9 mg
same,p-STAT5 level down-regulated by,"[3]; spleen, 8 hours after administration, 30 mg/kg repeated",43.80 ± 1.59%
same,IC50,Ba/F3-FLT3-ITD^D835V,0.1 ± 0.06 µM
same,drug concentration in the spleen,"[4]; 8 h after single oral 30 mg/kg, by calculation",2416 ± 1657 nmol/kg
same,concentration at 0.5 h,[4]; [6],354 ± 77.1 ng/g
same,concentration at 2 h,[4]; [6],309 ± 40.5 ng/g
same,concentration at 4 h,[4]; [6],157 ± 58.3 ng/g
same,concentration at 8 h,"[4]; BALB/c nude, mouse, brain, oral, 30 mg/kg, single, 8 h, read-out: FM concentration, Brain",38.4 ± 28.5 ng/g
same,concentration at 0.5 h,[4]; [7],3390 ± 184 ng/g
same,concentration at 2 h,[4]; [7],1650 ± 381 ng/g
same,concentration at 4 h,[4]; [7],864 ± 418 ng/g
same,concentration at 8 h,"[4]; BALB/c nude, mouse, heart, oral, 30 mg/kg, single, 8 h, read-out: FM concentration, Heart",199 ± 145 ng/g
same,concentration at 0.5 h,[4]; [8],14900 ± 11400 ng/g
same,concentration at 2 h,[4]; [8],6250 ± 3230 ng/g
same,concentration at 4 h,[4]; [8],8490 ± 2240 ng/g
same,concentration at 8 h,"[4]; BALB/c nude, mouse, intestine, oral, 30 mg/kg, single, 8 h, read-out: FM concentration, Intestine",4360 ± 4050 ng/g
same,concentration at 0.5 h,[4]; [9],12100 ± 1260 ng/g
same,concentration at 2 h,[4]; [9],6220 ± 855 ng/g
same,concentration at 4 h,[4]; [9],2410 ± 1010 ng/g
same,concentration at 8 h,"[4]; BALB/c nude, mouse, kidney, oral, 30 mg/kg, single, 8 h, read-out: FM concentration, Kidney",1050 ± 767 ng/g
same,concentration at 0.5 h,[4]; [10],12800 ± 3700 ng/g
same,concentration at 2 h,[4]; [10],6530 ± 2920 ng/g
same,concentration at 4 h,[4]; [10],3820 ± 1480 ng/g
same,concentration at 8 h,"[4]; BALB/c nude, mouse, liver, oral, 30 mg/kg, single, 8 h, read-out: FM concentration, Liver",845 ± 662 ng/g
same,concentration at 0.5 h,[4]; [11],11600 ± 2960 ng/g
same,concentration at 2 h,[4]; [11],3820 ± 739 ng/g
same,concentration at 8 h,"[4]; BALB/c nude, mouse, lung, oral, 30 mg/kg, single, 8 h, read-out: FM concentration, Lung",603 ± 481 ng/g
same,concentration at 0.5 h,[4]; [12],633 ± 619 ng/g
same,concentration at 2 h,[4]; [12],217 ± 116 ng/g
same,concentration at 4 h,[4]; [12],152 ± 73.9 ng/g
same,concentration at 8 h,"[4]; BALB/c nude, mouse, muscle, oral, 30 mg/kg, single, 8 h, read-out: FM concentration, Muscle",43.1 ± 42 ng/g
same,concentration at 0.25 h,[4]; [13],653 ± 108 ng/mL
same,concentration at 0.5 h,[4]; [13],857 ± 74.5 ng/mL
same,concentration at 1 h,[4]; [13],922 ± 302 ng/mL
same,concentration at 2 h,[4]; [13],458 ± 88.2 ng/mL
same,concentration at 4 h,[4]; [13],248 ± 80.8 ng/mL
same,concentration at 8 h,"[4]; BALB/c nude, mouse, plasma, oral, 30 mg/kg, single, 8 h, read-out: FM concentration, Plasma",59.9 ± 50 ng/mL
same,concentration at 12 h,"[4]; BALB/c nude, mouse, plasma, oral, 30 mg/kg, single, 12 h, read-out: FM concentration, Plasma",61.4 ± 64.3 ng/mL
same,Kp,"[4]; BALB/c nude, mouse, 30 mg/kg, AUC(0-24h) of spleen higher than that of plasma, single oral 30 mg/kg",15.3
same,Kp,"[4]; BALB/c nude, mouse, 30 mg/kg, single oral 30 mg/kg, read-out: Cmax of spleen higher than that of plasma",11.7
same,concentration at 0.25 h,[4]; [14],5630 ± 710 ng/g
same,concentration at 0.5 h,[4]; [14],10400 ± 2660 ng/g
same,concentration at 1 h,[4]; [14],9930 ± 3970 ng/g
same,concentration at 2 h,[4]; [14],8530 ± 1510 ng/g
same,concentration at 4 h,[4]; [14],3810 ± 1880 ng/g
same,concentration at 8 h,"[4]; BALB/c nude, mouse, spleen, oral, 30 mg/kg, single, 8 h, read-out: FM concentration, Spleen",1410 ± 968 ng/g
same,concentration at 12 h,"[4]; BALB/c nude, mouse, spleen, oral, 30 mg/kg, single, 12 h, read-out: FM concentration, Spleen",358 ± 228 ng/g
same,concentration at 24 h,"[4]; BALB/c nude, mouse, spleen, oral, 30 mg/kg, single, 24 h, read-out: FM concentration, Spleen",32.6 ± 13.3 ng/g
same,concentration at 8 h,"[4]; BALB/c nude, mouse, spleen, 8 h after single oral 30 mg/kg, converted, read-out: drug concentration in the spleen",~2420 nM
same,concentration at 12 h,"[4]; BALB/c nude, mouse, spleen, 12 h after single oral 30 mg/kg, converted, read-out: concentration of FM in spleen",~614 nM
same,concentration at 0.5 h,[4]; [15],30300 ± 18400 ng/g
same,concentration at 2 h,[4]; [15],30500 ± 29000 ng/g
same,concentration at 4 h,[4]; [15],17700 ± 10900 ng/g
same,concentration at 8 h,"[4]; BALB/c nude, mouse, stomach, oral, 30 mg/kg, single, 8 h, read-out: FM concentration, Stomach",6840 ± 10500 ng/g
same,AUC(0-t),[4]; [16],2990 ± 558 ng·h/mL
same,Cmax,[4]; [16],1030 ± 174 ng/mL
same,half-life,[4]; [16],2.31 ± 0.79 h
same,Cmax,[4]; [17],12000 ± 3470 ng/g
same,half-life,[4]; [17],2.71 ± 0.51 h
same,Cl,"[4]; Plasma, single oral 30 mg/kg",168.7 ± 36.2 mL/min/kg
same,Vdss,"[4]; Plasma, single oral 30 mg/kg",32.84 ± 10.12 L/kg
same,CD34^+ cells in peripheral blood,CD34^+ cells,significantly inhibited
same,IC50,JAK1/JAK2,460 nM
same,bioavailability,Bioavailability,~60%
same,IC50,Ba/F3-FLT3-ITD^F691,0.15 ± 0.02 µM
same,IC50,Ba/F3-JAK2^V617F,0.2 ± 0.01 µM
